Experimental data from the NIST ThermoML archive (doi:10.1016/j.jct.2007.02.012).
Numbers after ± are expanded uncertainties.

Legend:
[1] = 101.33 kPa, Liquid
[2] = Boiling temperature at pressure P; conditions: Liquid, Distillation
[3] = refractive index (Na D-line) (dimensionless); conditions: 293.15 K; 101.33 kPa; Liquid; Standard Abbe refractometry

mass density ([1]; 293.15 K) [kg/m3] | Boiling temperature at pressure P ([2]; 101.33 kPa) [°C] | refractive index [3] | Boiling temperature at pressure P ([2]; 1.733 kPa) [°C] | mass density ([1]; 298.15 K) [kg/m3] | Structure (SMILES)
1119.13 ± 1.5 | 196.1 ± 0.2 | 1.41969 ± 0.00082 |  |  | COC(=O)CCC(=O)OC [dimethyl 1,4-butanedioate]
1061.72 ± 0.61 |  | 1.42825 ± 0.00075 | 115 ± 1 |  | COC(=O)CCCCC(=O)OC [dimethyl 1,6-hexanedioate]
1087.67 ± 0.68 | 214.2 ± 0.2 | 1.42454 ± 0.00075 |  |  | COC(=O)CCCC(=O)OC [dimethyl pentanedioate]
 | 141.4 ± 0.2 | 1.3808 ± 0.00075 |  | 988 ± 0.5 | CCC(=O)O [propanoic acid]
